Patent US10442808B2, “Pyrazolo pyrimidine derivatives and their use as MALT1 inhbitors” (NOVARTIS AG, priority 2014, dated 2019)

The molecules below were run on IL2 promoter (assay: Human IL2 promoter reporter gene assay (RGA) in Jurkat cells). Conditions: […], heading: IL2 reporter gene assay IC50, anti-CD28 mAb + PMA stimulation 5.5 h.
Format: cell-based
Procedure: Human IL2 Promoter Reporter Gene Assay (RGA) in Jurkat Cells
The transfected Jurkat clone K22 290_H23 was propagated in RPMI 1640 supplemented with 10% heat inactivated fetal calf serum, 50 μM 2-mercaptoethanol and 1 mg/ml Geneticin. The cell concentration should not exceed 1×10e6/ml during culturing. The cells should not exceed passage 30. Prior to the assay the cells were washed and prepared to the concentration of 2×10e6 cells/ml.
Compound dilutions were made as 2×-concentrated solutions then diluted ½ by addition to cells. Two hundred and fifty μl of compound dilution and 250 μl of cells were mixed together in wells of a 96-deep well plate. Cells/compounds premix were incubated 30 min at 37° C. and 5% CO2 directly in the deep well plate.
After pre-incubation of cells with compounds, cells were stimulated with anti-CD28 mAb (clone 15E8) at 3 μg/ml+PMA at 1 μg/ml. Both co-stimulants were diluted in culture medium at a 10×-concentrated solution. 10 μl of co-stimulants were pipetted into the white 96-well plates and 100 μl of cell/compound mix was immediately added in duplicates. The cells were stimulated for 5.5 h at 37° C. and 5% CO2.
After cell stimulation, 50 μl of BriteLitePlus reagent (Perkin Elmer) was added to each well and the bioluminescence was measured with a Wallac EnVision reader (Perkin Elmer).

| Structure (SMILES) | IC50 [nM] |
| --- | --- |
| CO[C@@H](C)c1c(NC(=O)Nc2ccnc(Cl)c2)cnc2cc(Cl)nn12 [Example 12, (S)-1-(2-chloro-7-(1-methoxyethyl)pyrazolo [1,5-a]pyrimidin-6-yl)-3-(2-chloropyridin-4-yl)urea] | 39 |
| COCC1(c2c(NC(=O)Nc3cnc(-n4nccn4)c(Cl)c3)cnc3cc(Cl)nn23)CCCO1 (stereo not drawn) [Example 91, 1-(5-chloro-6-(2H-1,2,3-triazol-2-yl)pyridin-3-yl)-3-(2-chloro-7-(2-(methoxymethyl)tetrahydrofuran-2-yl)pyrazolo[1,5-a]pyrimidin-6-yl)urea] | 50 |
| CO[C@@H](C)c1c(NC(=O)Nc2cnc(OC(F)F)c(Cl)c2)cnc2cc(Cl)nn12 [Example 93, (S)-1-(5-chloro-6-(difluoromethoxy)pyridin-3-yl)-3-(2-chloro-7-(1-methoxyethyl)pyrazolo[1,5-a]pyrimidin-6-yl)urea] | 59 |
| COc1ncc(NC(=O)Nc2cnc3cc(Cl)nn3c2C2CCC(C)O2)cc1Cl (stereo not drawn) [Example 87, 1-(5-chloro-6-methoxypyridin-3-yl)-3-(2-chloro-7-(5-methyltetrahydrofuran-2-yl)pyrazolo[1,5-a]pyrimidin-6-yl)urea] | 41 |
| O=C(Nc1cnc(-n2nccn2)c(Cl)c1)Nc1cnc2cc(Cl)nn2c1C1CC12CCOC2 (stereo not drawn) [Example 68, 1-(5-chloro-6-(2H-1,2,3-triazol-2-yl)pyridin-3-yl)-3-(2-chloro-7-(5-oxaspiro[2.4]heptan-1-yl)pyrazolo[1,5-a]pyrimidin-6-yl)urea] | 76 |
| COC[C@H](C)c1c(NC(=O)Nc2cnc(-n3nccn3)c(C(F)(F)F)c2)cnc2cc(Cl)nn12 [Example 111, (R)-1-(6-(2H-1,2,3-triazol-2-yl)-5-(trifluoromethyl)pyridin-3-yl)-3-(2-chloro-7-(1-methoxypropan-2-yl)pyrazolo[1,5-a]pyrimidin-6-yl)urea] | 138 |
| COCC1(c2c(NC(=O)Nc3cnc(-n4nccn4)c(Cl)c3)cnc3cc(C)nn23)CC1 [Example 78, 1-(5-chloro-6-(2H-1,2,3-triazol-2-yl)pyridin-3-yl)-3-(7-(1-(methoxymethyl)cyclopropyl)-2-methylpyrazolo[1,5-a]pyrimidin-6-yl)urea] | 927 |
| COCC(OC)c1c(NC(=O)Nc2cnc(-n3nccn3)c(C(F)(F)F)c2)cnc2cc(Cl)nn12 (stereo not drawn) [Example 108, 1-(6-(2H-1,2,3-triazol-2-yl)-5-(trifluoromethyl)pyridin-3-yl)-3-(2-chloro-7-(1,2-dimethoxyethyl)pyrazolo[1,5-a]pyrimidin-6-yl)urea] | 17 |
| COc1ncc(NC(=O)Nc2cnc3cc(Cl)nn3c2[C@H](C)OC)cc1Cl [Example 9, (S)-1-(5-chloro-6-methoxypyridin-3-yl)-3-(2-chloro-7-(1-methoxyethyl)pyrazolo [1,5-a]pyrimidin-6-yl)urea] | 19 |
| COCC1(c2c(NC(=O)Nc3ccnc(C(F)(F)F)c3)cnc3cc(Cl)nn23)CCC1 [Example 51, 1-(2-chloro-7-(1-(methoxymethyl)cyclobutyl)pyrazolo[1,5-a]pyrimidin-6-yl)-3-(2-(trifluoromethyl)pyridin-4-yl)urea] | 267 |
| CC1(c2c(NC(=O)Nc3cnc(-n4nccn4)c(Cl)c3)cnc3cc(Cl)nn23)CC1 [Example 16, 1-(5-chloro-6-(2H-1,2,3-triazol-2-yl)pyridin-3-yl)-3-(2-chloro-7-(1-methylcyclopropyl)pyrazolo[1,5-a]pyrimidin-6-yl)urea] | 207 |
| COCCO[C@@H](C)c1c(NC(=O)Nc2ccnc(C(F)(F)F)c2)cnc2cc(Cl)nn12 [Example 41, (S)-1-(2-chloro-7-(1-(2-methoxyethoxy)ethyl)pyrazolo[1,5-a]pyrimidin-6-yl)-3-(2-(trifluoromethyl)pyridin-4-yl)urea] | 82 |
| CO[C@@H](C)c1c(NC(=O)Nc2ccnc(C(F)(F)F)c2)cnc2cc(C)nn12 [Example 6, (S)-1-(7-(1-methoxyethyl)-2-methylpyrazolo[1,5-a]pyrimidin-6-yl)-3-(2-(trifluoromethyl)pyridin-4-yl)urea] | 30 |
| Cc1c(NC(=O)Nc2cnc(-n3nccn3)c(Cl)c2)cnc2cc(Cl)nn12 [Example 62, 1-(5-chloro-6-(2H-1,2,3-triazol-2-yl)pyridin-3-yl)-3-(2-chloro-7-methylpyrazolo[1,5-a]pyrimidin-6-yl)urea] | 140 |
| CN1CCCC[C@H]1c1c(NC(=O)Nc2cnc(-n3nccn3)c(Cl)c2)cnc2cc(Cl)nn12 [Example 84, (S)-1-(5-chloro-6-(2H-1,2,3-triazol-2-yl)pyridin-3-yl)-3-(2-chloro-7-(1-methylpiperidin-2-yl)pyrazolo[1,5-a]pyrimidin-6-yl)urea] | 49 |
| CC1(c2c(NC(=O)Nc3ccnc(C(F)(F)F)c3)cnc3cc(Cl)nn23)CCCO1 (stereo not drawn) [Example 36, 1-(2-chloro-7-(2-methyltetrahydrofuran-2-yl)pyrazolo[1,5-a]pyrimidin-6-yl)-3-(2-(trifluoromethyl)pyridin-4-yl)urea] | 43 |
| CC(C)c1c(NC(=O)Nc2cc(C(F)(F)F)cn(C)c2=O)cnc2cc(Cl)nn12 [Example 32, 1-(2-chloro-7-isopropylpyrazolo[1,5-a]pyrimidin-6-yl)-3-(1-methyl-2-oxo-5-(trifluoromethyl)-1,2-dihydropyridin-3-yl)urea] | 59 |
| CO[C@H](C)c1c(NC(=O)Nc2ccnc(C(F)(F)F)c2)cnc2cc(Cl)nn12 [Example 47, (R)-1-(2-chloro-7-(1-methoxyethyl)pyrazolo [1,5-a]pyrimidin-6-yl)-3-(2-(trifluoromethyl)pyridin-4-yl)urea] | 94 |
| COCC1(c2c(NC(=O)Nc3ccnc(C(F)(F)F)c3)cnc3cc(C)nn23)CC1 [Example 79, 1-(7-(1-(methoxymethyl)cyclopropyl)-2-methylpyrazolo[1,5-a]pyrimidin-6-yl)-3-(2-(trifluoromethyl)pyridin-4-yl)urea] | 89 |
| CO[C@@H](C)c1c(NC(=O)Nc2cnc(-n3nccn3)c(Cl)c2)cnc2cc(F)nn12 [Example 95, (S)-1-(5-chloro-6-(2H-1,2,3-triazol-2-yl)pyridin-3-yl)-3-(2-fluoro-7-(1-methoxyethyl)pyrazolo [1,5-a]pyrimidin-6-yl)urea] | 60 |
| CO[C@@H](C)c1c(NC(=O)Nc2cc(Cl)cnc2OCCN(C)C)cnc2cc(Cl)nn12 [Example 99, (S)-1-(5-chloro-2-(2-(dimethylamino)ethoxy)pyridin-3-yl)-3-(2-chloro-7-(1-methoxyethyl)pyrazolo[1,5-a]pyrimidin-6-yl)urea] | 54 |
| CC(C)c1c(NC(=O)Nc2cnc(N3CCCS3(=O)=O)c(C(F)(F)F)c2)cnc2cc(Cl)nn12 [Example 27, 1-(2-chloro-7-isopropylpyrazolo[1,5-a]pyrimidin-6-yl)-3-(6-(1,1-dioxidoisothiazolidin-2-yl)-5-(trifluoromethyl)pyridin-3-yl)urea] | 507 |
| COC(=O)c1cc(Cl)cc(NC(=O)Nc2cnc3cc(Cl)nn3c2[C@H](C)OC)c1 [Example 13, (S)-methyl 3-chloro-5-(3-(2-chloro-7-(1-methoxyethyl)pyrazolo [1,5-a]pyrimidin-6-yl)ureido)benzoate] | 67 |
| CC(C)c1c(NC(=O)Nc2cnc(-c3ccnn3C)c(Cl)c2)cnc2cc(Cl)nn12 [Example 29, 1-(5-chloro-6-(1-methyl-1H-pyrazol-5-yl)pyridin-3-yl)-3-(2-chloro-7-isopropylpyrazolo[1,5-a]pyrimidin-6-yl)urea] | 221 |
| CN1CCOCC1Cc1c(NC(=O)Nc2cnc(-n3nccn3)c(Cl)c2)cnc2cc(Cl)nn12 (stereo not drawn) [Example 83, 1-(5-chloro-6-(2H-1,2,3-triazol-2-yl)pyridin-3-yl)-3-(2-chloro-7-((4-methylmorpholin-3-yl)methyl)pyrazolo[1,5-a]pyrimidin-6-yl)urea] | 13 |
| CCOc1ncc(NC(=O)Nc2cnc3cc(Cl)nn3c2C(C)C)cc1Cl [Example 25, 1-(5-chloro-6-ethoxypyridin-3-yl)-3-(2-chloro-7-isopropylpyrazolo[1,5-a]pyrimidin-6-yl)urea] | 248 |
| COCCO[C@@H](C)c1c(NC(=O)Nc2cnc(OC(F)F)c(Cl)c2)cnc2cc(Cl)nn12 [Example 97, (S)-1-(5-chloro-6-(difluoromethoxy)pyridin-3-yl)-3-(2-chloro-7-(1-(2-methoxyethoxy)ethyl)pyrazolo[1,5-a]pyrimidin-6-yl)urea] | 218 |
| CC(C)OCc1c(NC(=O)Nc2cnc(-n3nccn3)c(Cl)c2)cnc2cc(Cl)nn12 [Example 61, 1-(5-chloro-6-(2H-1,2,3-triazol-2-yl)pyridin-3-yl)-3-(2-chloro-7-(isopropoxymethyl)pyrazolo[1,5-a]pyrimidin-6-yl)urea] | 14 |

Same assay, conditions: anti-CD28 mAb + PMA stimulation 5.5 h

| Structure (SMILES) | IC50 [nM] |
| --- | --- |
| CO[C@@H](C)c1c(NC(=O)Nc2cc(C(F)(F)F)cn(C)c2=O)cnc2cc(Cl)nn12 [Example 3, (S)-1-(2-chloro-7-(1-methoxyethyl)pyrazolo[1,5-a]pyrimidin-6-yl)-3-(1-methyl-2-oxo-5-(trifluoromethyl)-1,2-dihydropyridin-3-yl)urea] | 131 |
| CO[C@@H](C)c1c(NC(=O)Nc2ccnc(C(F)(F)F)c2)cnc2cc(Cl)nn12 [Example 2, (S)-1-(2-chloro-7-(1-methoxyethyl)pyrazolo[1,5-a]pyrimidin-6-yl)-3-(2-(trifluoromethyl)pyridin-4-yl)urea] | 51 |
